US8741905B2, “Compounds and methods for treating autoimmune diseases” (The Broad Institute, Inc., priority 2010, dated 2014)
pEC50, pIC50: −log10 of the molar value.

Tests used:
INS-1E cells [1] = test: Cellular ATP levels (CellTiter-Glo) in cytokine-treated INS-1E cells; suppression of cytokine-induced beta-cell apoptosis; type: cell-based, rat
Experimental: The compounds were analyzed for activity utilizing methods described in Chou et al. (ACS Chem. Biol. 2010 Aug. 20; 5(8):729-34).
INS-1E cells were seeded at 10,000 cells per well using a Multidrop Combi (Thermo Labsystems) in white optical 384-well plates (Corning Life Sciences). After overnight incubation, medium was removed and 50 μL of RPMI containing 1% FBS and a combination of cytokines (10 ng mL-^1 IL-1β, 50 ng mL^−1 IFN-γ, 25 ngmL^−1 TNF-α) was added to every well. Using libraries of compounds dissolved in DMSO and a CyBi-Well pin-transfer robot (CyBio Corp.), 0.1 μL of each compound was added. After 48 h, medium was removed and 20 μL of CellTiter-Glo reagent was added. Luminescence was measured after 10 min of incubation using an EnVision plate reader (PerkinElmer).
Instrument output files were processed using Pipeline Pilot (Accelrys) and input to MATLAB (The MathWorks) for data normalization. Compound performance scores relative to a distribution of mock-treated (DMSO) wells were calculated using a revised version of the scoring system underlying ChemBank. (Seiler et al., Nucleic Acids Res. 36, D351-359, 2008). The role of replicate treatments was further developed as follows: first, mock-treatment distributions were modeled using all mock-treated wells measured on a single day, regardless of their nominal replicate; second, per-compound scores weighted each in-plate background-subtracted measurement by the uncertainty in that measurement, using the method of maximum likelihood. The uncertainty in a single background-subtracted measurement was estimated using the number of mock-treated wells on the plate and, as a measure of the assay noise, the standard deviation of the per-day mock-treatment distribution. The signal, a weighted average of differences, was scaled by the noise, the standard deviation of the mock treatment distribution.
INS-1E cells were seeded at 10,000 cells/well using a Multidrop Combi (Thermo Labsystems) in white optical 384-well plates (Corning Life Sciences). After overnight incubation, medium was removed and 50 μL RPMI containing the treated compound, 1% FBS and a combination of cytokines (10 ng/mL IL-1β, 50 ng/mL IFN-γ, 25 ng/mL TNF-α) was added to every well. After incubation for 48 hr, medium was removed and 20 μL CellTiter-Glo reagent was added. Luminescence was measured after 10-min incubation using an EnVision plate reader (PerkinElmer).

INS-1E cells [2] = test: Caspase-3 activity assay (Caspase-Glo 3/7) in cytokine-treated INS-1E cells; type: cell-based, rat; conditions: cytokines, 48 h, Caspase-Glo 3/7
Experimental: INS-1E cells were seeded at 5,000 cells per well in white optical 384-well plates and treated as described for highthroughput screening. After treatment with cytokines and compounds for 48 h, medium was removed and 20 μL Caspase-Glo 3/7 reagent was added. Luminescence was measured after 2 h of incubation using an EnVision plate reader.

[3] = Rattus norvegicus, INS-1E, assay not named, read-out: EC50
[4] = Rattus norvegicus, INS-1E cells, cytokines IL-1β, IFN-γ, TNF-α, 48 h, CellTiter-Glo, read-out: CTG EC50 in HTS
[5] = INS-1E cells, cytokines IL-1β, IFN-γ, TNF-α, 48 h, CellTiter-Glo, read-out: CTG EC50 in HTS

Row | pEC50 (INS-1E cells [2]; Rattus norvegicus) | pEC50 (INS-1E cells [2]) | Compound | pEC50 (INS-1E cells [1]; [3]) | pIC50 (INS-1E cells [1]; Rattus norvegicus, INS-1E, read-out: IC50, inhibition of cytokine-induced beta cell apoptosis) | pEC50 (INS-1E cells [1]; [4]) | pEC50 (INS-1E cells [1]; [5])
1 | < 7.00 | – | COc1ccc(S(=O)(=O)N(C)C[C@@H]2Oc3c(NC(=O)Nc4cccc5ccccc45)cccc3C(=O)N([C@@H](C)CO)C[C@H]2C)cc1 [Compound 1A, N-(((2R,3R)-5-((S)-1-hydroxypropan-2-yl)-3-methyl-10-(3-(naphthalen-1-yl)ureido)-6-oxo-3,4,5,6-tetrahydro-2H-benzo[b][1,5]oxazocin-2-yl)methyl)-4-methoxy-N-methylbenzenesulfonamide] | 6.37 | 5.31 | < 7.00 | –
2 | < 4.60 | – | Cc1ccc(S(=O)(=O)N(C)C[C@@H]2Oc3c(NC(=O)Nc4cccc5ccccc45)cccc3C(=O)N([C@@H](C)CO)C[C@H]2C)cc1 [Compound 2A, N-(((2R,3R)-5-((S)-1-hydroxypropan-2-yl)-3-methyl-10-(3-(naphthalen-1-yl)ureido)-6-oxo-3,4,5,6-tetrahydro-2H-benzo[b][1,5]oxazocin-2-yl)methyl)-N,4-dimethylbenzenesulfonamide] | 5.26 | – | < 5.00 | –
3 | < 5.00 | – | Cc1ccc(S(=O)(=O)N(C)C[C@@H]2Oc3c(NC(=O)Nc4cccc5c4ccn5C)cccc3C(=O)N([C@@H](C)CO)C[C@H]2C)cc1 [Compound 3A, N-(((2R,3R)-5-((S)-1-hydroxypropan-2-yl)-3-methyl-10-(3-(1-methyl-1H-indol-4-yl)ureido)-6-oxo-3,4,5,6-tetrahydro-2H-benzo[b][1,5]oxazocin-2-yl)methyl)-N,4-dimethylbenzenesulfonamide] | – | – | < 4.60 | –
4 | – | < 4.60 | C[C@@H]1CN([C@@H](C)CO)C(=O)c2cccc(NC(=O)Nc3cccc4ccccc34)c2O[C@H]1CN(C)S(=O)(=O)c1ccccc1 [Compound 4A] | – | – | – | < 4.60
5 | – | < 4.60 | C[C@@H]1CN([C@@H](C)CO)C(=O)c2cccc(NC(=O)Nc3cccc4ccccc34)c2O[C@H]1CN(C)S(=O)(=O)c1ccc(Cl)cc1 [Compound 5A] | – | – | – | < 7.00
6 | – | < 4.60 | C[C@@H]1CN([C@@H](C)CO)C(=O)c2cccc(NC(=O)Nc3cccc4ccccc34)c2O[C@H]1CN(C)S(=O)(=O)c1ccc(F)cc1 [Compound 6A] | – | – | – | < 4.60
7 | – | < 4.60 | C[C@@H]1CN([C@@H](C)CO)C(=O)c2cccc(NC(=O)Nc3cccc4ccccc34)c2O[C@H]1CN(C)S(=O)(=O)c1cccc(F)c1 [Compound 7A] | – | – | – | < 4.60
8 | – | < 4.60 | C[C@@H]1CN([C@@H](C)CO)C(=O)c2cccc(NC(=O)Nc3cccc4ccccc34)c2O[C@H]1CN(C)S(=O)(=O)c1ccccc1F [Compound 8A] | – | – | – | < 4.60
9 | – | < 4.60 | C[C@@H]1CN([C@@H](C)CO)C(=O)c2cccc(NC(=O)Nc3cccc4ccccc34)c2O[C@H]1CN(C)CS(=O)(=O)c1ccc(F)cc1 [Compound 9A] | – | – | – | < 4.60
10 | – | < 4.60 | COc1ccc(S(=O)(=O)N(C)C[C@@H]2Oc3c(NC(=O)Nc4cccc5ccccc45)cccc3C(=O)N([C@@H](C)CO)C[C@H]2C)cc1F [Compound 10A] | – | – | – | < 4.70
11 | – | < 4.60 | COc1ccc(S(=O)(=O)N(C)C[C@@H]2Oc3c(NC(=O)Nc4cccc5ccccc45)cccc3C(=O)N([C@@H](C)CO)C[C@H]2C)cc1Cl [Compound 11A] | – | – | – | < 5.00
12 | – | < 4.60 | C[C@@H]1CN([C@@H](C)CO)C(=O)c2cccc(NC(=O)Nc3cccc4ccccc34)c2O[C@H]1CN(C)S(=O)(=O)c1ccc(Oc2ccccc2)cc1 [Compound 12A] | – | – | – | < 4.60
13 | – | < 4.60 | C[C@@H]1CN([C@@H](C)CO)C(=O)c2cccc(NC(=O)Nc3cccc4ccccc34)c2O[C@H]1CN(C)S(=O)(=O)c1ccc(-c2ccccc2)cc1 [Compound 13A] | – | – | – | < 4.60
14 | – | < 4.60 | C[C@@H]1CN([C@@H](C)CO)C(=O)c2cccc(NC(=O)Nc3cccc4ccccc34)c2O[C@H]1CN(C)S(=O)(=O)c1ccc2c(c1)CCC(=O)N2 [Compound 14A] | – | – | – | < 4.60
15 | – | < 4.60 | C[C@@H]1CN([C@@H](C)CO)C(=O)c2cccc(NC(=O)Nc3cccc4ccccc34)c2O[C@H]1CN(C)S(=O)(=O)c1ccc2c(c1)oc(=O)n2C [Compound 15A] | – | – | – | < 4.60
16 | – | < 4.60 | C[C@@H]1CN([C@@H](C)CO)C(=O)c2cccc(NC(=O)Nc3cccc4ccccc34)c2O[C@H]1CN(C)S(=O)(=O)c1ccc(OC(F)(F)F)cc1 [Compound 16A] | – | – | – | < 5.00
17 | – | < 4.60 | COc1ccccc1S(=O)(=O)N(C)C[C@@H]1Oc2c(NC(=O)Nc3cccc4ccccc34)cccc2C(=O)N([C@@H](C)CO)C[C@H]1C [Compound 17A] | – | – | – | < 4.60
18 | – | < 4.60 | COc1cccc(S(=O)(=O)N(C)C[C@@H]2Oc3c(NC(=O)Nc4cccc5ccccc45)cccc3C(=O)N([C@@H](C)CO)C[C@H]2C)c1 [Compound 18A] | – | – | – | < 4.60
19 | – | < 4.60 | COc1ccc(S(=O)(=O)N(C)C[C@@H]2Oc3c(NC(=O)Nc4cccc5ccccc45)cccc3C(=O)N([C@@H](C)CO)C[C@H]2C)c(OC)c1 [Compound 19A] | – | – | – | < 4.60
20 | < 7.00 | – | COc1ccc(S(=O)(=O)N(C)C[C@@H]2Oc3c(NC(=O)Nc4cccc5ccccc45)cccc3C(=O)N([C@@H](C)CO)C[C@H]2C)cc1C [Compound 20A, N-(((2R,3R)-5-((S)-1-hydroxypropan-2-yl)-3-methyl-10-(3-(naphthalen-1-yl)ureido)-6-oxo-3,4,5,6-tetrahydro-2H-benzo[b][1,5]oxazocin-2-yl)methyl)-4-methoxy-N,3-dimethylbenzenesulfonamide] | 6.50 | – | < 7.00 | –
21 | – | < 4.60 | C[C@@H]1CN([C@@H](C)CO)C(=O)c2cccc(NC(=O)Nc3cccc4ccccc34)c2O[C@H]1CN(C)S(=O)(=O)c1ccc2c(c1)OCO2 [Compound 23A] | – | – | – | < 4.60
22 | – | < 4.60 | C[C@@H]1CN([C@@H](C)CO)C(=O)c2cccc(NC(=O)Nc3cccc4ccccc34)c2O[C@H]1CN(C)S(=O)(=O)c1ccc2c(c1)OCC2 [Compound 24A] | – | – | – | < 4.60
23 | – | < 4.60 | C[C@@H]1CN([C@@H](C)CO)C(=O)c2cccc(NC(=O)Nc3cccc4ccccc34)c2O[C@H]1CN(C)S(=O)(=O)c1ccc2c(c1)OCCCO2 [Compound 25A] | – | – | – | < 4.60
24 | – | < 4.60 | C[C@@H]1CN([C@@H](C)CO)C(=O)c2cccc(NC(=O)Nc3cccc4ccccc34)c2O[C@H]1CN(C)S(=O)(=O)c1ccc2c(n1)N(C)CCO2 [Compound 26A] | – | – | – | < 4.60
25 | < 4.60 | – | C[C@@H]1CN([C@@H](C)CO)C(=O)c2cccc(NC(=O)Nc3ccc(F)cc3)c2O[C@H]1CN(C)S(=O)(=O)c1ccc(Cl)cc1 [Compound 30A, 4-Chloro-N-(((2R,3R)-10-(3-(4-fluorophenyl)ureido)-5-((S)-1-hydroxypropan-2-yl)-3-methyl-6-oxo-3,4,5,6-tetrahydro-2H-benzo[b][1,5]oxazocin-2-yl)methyl)-N-methylbenzenesulfonamide] | – | – | < 4.60 | –
26 | – | < 4.70 | C[C@@H]1CN([C@@H](C)CO)C(=O)c2cccc(NC(=O)Nc3ccccc3)c2O[C@H]1CN(C)S(=O)(=O)c1ccc(Cl)cc1 [Compound 31A] | – | – | – | < 4.70
27 | < 4.60 | – | COc1ccc(S(=O)(=O)N(C)C[C@@H]2Oc3c(NC(=O)Nc4cccc(Cl)c4Cl)cccc3C(=O)N([C@@H](C)CO)C[C@H]2C)cc1 [Compound 32A, N-(((2R,3R)-10-(3-(2,3-Dichlorophenyl)ureido)-5-((S)-1-hydroxypropan-2-yl)-3-methyl-6-oxo-3,4,5,6-tetrahydro-2H-benzo[b][1,5]oxazocin-2-yl)methyl)-4-methoxy-N-methylbenzenesulfonamide] | – | – | < 4.70 | –
28 | – | < 4.60 | COc1ccc(S(=O)(=O)N(C)C[C@@H]2Oc3c(NC(=O)Nc4ccccc4)cccc3C(=O)N([C@@H](C)CO)C[C@H]2C)cc1 [Compound 33A] | – | – | – | < 4.60
29 | – | < 4.60 | COc1ccc(S(=O)(=O)N(C)C[C@@H]2Oc3c(NC(=O)c4cc(C)nn4C)cccc3C(=O)N([C@@H](C)CO)C[C@H]2C)cc1 [Compound 34A] | – | – | – | < 4.60
30 | – | – | Cc1ccc(S(=O)(=O)N(C)C[C@@H]2Oc3c(NC(=O)Nc4ccc(F)cc4)cccc3C(=O)N([C@H](C)CO)C[C@H]2C)cc1 [Compound 37B] | – | – | – | < 4.60
